Here are results for three molecules from US20080293099A1, “Lignan Glycosidase and Utilization of the Same” (priority 2004, published 2008).

Assay [1] has as its system SiGT8 recombinant protein. Put plainly: lignan glycosidation activity assay with SiGT8 recombinant protein (HPLC analysis of the product). The note with it: crude enzyme solution expressed in Escherichia coli, UDP-glucose, 30° C. for an hour, absorption at 287 nm. The assay is classed as biochemical, Sesamum indicum. As to the method:
(§1) Escherichia coli JM109 (TOYOBO) was transformed with Escherichia coli expression vectors pSPB2637, pSPB2642, pSPB2645, pSPB2639 and pSPB2640 prepared in EXAMPLE 6, and preincubated at 37° C. overnight in LB medium supplemented with ampicillin in final concentration of 20 μg/ml. A part of the preincubation culture was added to M9 medium (10 ml) containing 50 μg/ml of ampicillin and 0.5% Casamino acid, and shake cultured to reach A600=0.6-1.0. The composition of M9 medium is as follows: 1×M9 salt, 1 mM MgSO4, 0.2% glucose and 0.001% thiamine hydrochloride. The composition of 10×M9 medium is as follows: a 500 ml aqueous solution containing 30 g of Na2HPO4, 15 g of KH2PO4, 2.5 g of NaCl and 5 g of NH4Cl. Next, IPTG (isopropyl-β-D-thiogalactopyranoside) in a final concentration of 0.5 mM was added to the culture. After further shake culture at 30° C. overnight, centrifugation was performed at 3000 rpm at 4° C. for 10 minutes to collect the cells. […]
(§2) Pinoresinol, piperitol or sesaminol was dissolved in a small quantity of DMSO and further dissolved in 70% ethanol to prepare a substrate solution (1 mg/ml). […]
(§3) The enzyme reaction was terminated by adding 100% acetonitrile (250 μl) containing 0.1% TFA (trifluoroacetic acid) to the reaction tube. […] The resulting supernatant was washed through a filter (pore size of […], 4 mm Millex-LH, Millipore) and then analyzed using high performance liquid chromatography (hereinafter HPLC). […]
Liquid chromatography (Lc-2010c (Shimadzu Corporation)) was performed using a C-30 column (Nomura Chemical, C30-UG-5, 4.6 mm×150 mm). […] Absorption was monitored at 287 nm to detect the compound contained in a sample. The spectra between 190 nm and 400 nm for each peak of the compound were measured using SPD-10AV (Shimadzu Corporation) to detect a substance having two absorption maxima (230 nm and 280 nm) characteristic of lignans. Under the conditions, authentic pinoresinol is detected at about 8.4 minutes, authentic piperitol at about 12.8 minutes and authentic sesaminol at about 13.8 minutes (FIGS. 2 and 3).

Assay [2] concerns SrSiGT8 recombinant protein. The assay can be described thus: lignan glycosidation activity assay with purified His-SrSiGT8 recombinant protein (HPLC analysis). The assay is classed as biochemical, Sesamum radiatum. The note with it: Ni column purified, dialyzed His-SrSiGT8, UDP-glucose, 30° C. for an hour. As to the method: About 1.4 kb DNA fragment containing the full-length SrSiGT8 was excised from pSPB2656 with BamHI/KpnI and then ligated to the BamHI/KpnI site of pQE30 vector (QIAGEN), which was an expression vector for Escherichia coli, to obtain SrSiGT8/pQE30 (pSPB2657). This pSPB2657 expresses recombinant protein (His-SrSiGT8) with His tag consisting of 6 histidine residues fused to SrSiGT8 at the N terminus.
Escherichia coli transformed with pSPB2657 was incubated as in EXAMPLE 7 to express a recombinant protein. The following experiment was all carried out on ice or at 4° C., unless otherwise indicated.
After the cells were dissolved in 5 ml of lysis buffer (20 mM sodium phosphate buffer, 30 mM imidazole, 500 mM NaCl, 5 mM β-mercaptoethanol and 100 μM APSMF) per 1 g, the cells were lysed by ultrasonication, followed by centrifugation at 4000 rpm for 10 minutes. The supernatant obtained was recovered as the crude enzyme solution.
Next, the His-SrSiGT8 recombinant protein was purified through a Ni column. Chelating Sepharose FF resin (Amersham Bioscience) was packed in the column and 0.1M NiSO4 in a volume equal to the resin was added to the resin. Subsequently, the column was washed with water in a volume twice the volume of the resin and then with 20% ethanol in a volume 3 times the volume of the resin.
Then, the column was equilibrated with a lysis buffer in a volume 5 times the volume of the resin and a sample obtained by diluting 5 mL of the crude enzyme solution described above with the lysis buffer to 10-fold was loaded on the column. After the sample naturally dropped by the gravity, the sample was washed 3 times with the lysis buffer in a volume 5 times the volume of the resin and then eluted using 5 ml of an elution buffer (20 mM sodium phosphate buffer, 500 mM imidazole, 500 mM NaCl, 5 mM β-mercaptoethanol and 100 μM APSMF) […]
To 300 μl of the dialyzed sample, 20 μl of the substrate solution (1 mg/ml) and 3 μl of 20 mM UDP-glucose were added to react at 30° C. for an hour. The reaction product was analyzed in a manner similar to EXAMPLE 8.

Assay [3] has as its system SaSiGT8 recombinant protein. The assay can be described thus: lignan glycosidation activity assay with SaSiGT8 recombinant protein (SaLGT1) (HPLC analysis). Type of assay: biochemical, S. alatum. The note with it: recombinant protein expressed in Escherichia coli as in EXAMPLE 11. From the text:
The fragment containing ORF of SaSiGT8 was excised from pSPB2697 with BamHI and KpnI and inserted into the BamHI and KpnI sites of Escherichia coli expression vector pQE30 to give the expression vector pSPB2698. The recombinant SaSiGT8 protein (SaLGT1) was expressed as in EXAMPLE 11 to confirm that the protein had the lignan glycosidation activity. It was also confirmed by SDS-PAGE that the recombinant SaSiGT8 protein (ca. 60 kDa) was present in the lysis supernatant of transgenic Escherichia coli expressing the SaSiGT8 gene (FIG. 9).

The test system of assay [4] is SiGT10 recombinant protein. The assay can be described thus: lignan glycosidation activity assay with SiGT10 recombinant protein (HPLC analysis of the product). The assay is classed as biochemical, Sesamum indicum. The note with it: crude enzyme solution expressed in Escherichia coli, UDP-glucose, 30° C. for an hour, absorption at 287 nm. The method, then:
as §1, with “NH4Cl.” for “NH4Cl. Next, IPTG (isopropyl-β-D-thiogalactopyranoside) in a final concentration of 0.5 mM was added to the culture. After further shake culture at 30° C. overnight, centrifugation was performed at 3000 rpm at 4° C. for 10 minutes to collect the cells.”
as §2, §3
Liquid chromatography (Lc-2010c (Shimadzu Corporation)) was performed using a C-30 column (Nomura Chemical, C30-UG-5, 4.6 mm×150 mm). […] Absorption was monitored at 287 nm to detect the compound contained in a sample. […]

For `COc1cc([C@@H]2OC[C@@H]3[C@H]2CO[C@H]3c2ccc3c(c2)OCO3)ccc1O` [piperitol], the “glycosidation of the lignan substrate by SiGT8 (new product peak with lignan spectrum in HPLC)” value in assay [1] is on record as “peak D having the spectrum of lignan (retention time of about 7.4 minutes) was newly obtained”. In assay [2], the “glycosidation of the lignan substrate by SrSiGT8 (new product peak with lignan spectrum in HPLC)” value is on record as “peak E having a new spectrum for lignan showing the retention time of about 7.4 minutes was detected”. The “glycosidation of the lignan substrate by SaSiGT8 (monoglucoside formed, HPLC)” value (shortened to “glycosidation … (monoglucoside formed, HPLC)”) in assay [3] was “produced the respective monoglucosides”.
Regarding `Oc1cc2c(cc1[C@H]1OC[C@H]3[C@@H]1CO[C@@H]3c1ccc3c(c1)OCO3)OCO2` [sesaminol], the “glycosidation of the lignan substrate by SiGT8 (new product peak with lignan spectrum in HPLC)” value in assay [1] is listed as “peak B having the spectrum of lignan (retention time of about 8.2 minutes) was newly obtained”. Besides, in assay [2], the “glycosidation of the lignan substrate by SrSiGT8 (new product peak with lignan spectrum in HPLC)” value was “peak F having a new spectrum for lignan showing the retention time of about 8.2 minutes was detected”. Further, the “glycosidation … (monoglucoside formed, HPLC)” value in assay [3] was “produced the respective monoglucosides”. The “glycosidation of the lignan substrate by SiGT10 (new product peak with lignan spectrum in HPLC)” value in assay [4] is on record as “peak C having the spectrum of lignan (retention time of about 8.2 minutes) was newly obtained”.
In the case of pinoresinol, in assay [1], the “glycosidation of the lignan substrate by SiGT8 (new product peak with lignan spectrum in HPLC)” value is listed as “peak A having the spectrum of lignan (retention time of about 4.0 minutes) was newly obtained”. For the same molecule, the “glycosidation of the lignan substrate by SrSiGT8 (new product peak with lignan spectrum in HPLC)” value in assay [2] is on record as “any peak with a spectrum for any new lignan was detected”. Moreover, the “glycosidation … (monoglucoside formed, HPLC)” value in assay [3] is listed as “produced the respective monoglucosides”. The “glycosidation of the lignan substrate by SiGT10 (new product peak with lignan spectrum in HPLC)” value in assay [4] is given as “any new product was not observed”.
